# Assay results taken from PMC3608355, “Amino Acid Derivatives as New Zinc Binding Groups for the Design of Selective Matrix Metalloproteinase Inhibitors” (Journal of Amino Acids, 2013).
# Counter-ions that a name gives are not always drawn. Like-named read-outs stand apart in the source and are kept apart here.
# Tests used:
# MMP-2 [1] = target: T1, MMP-2 (Homo sapiens, UniProt P08253)
# T1 sequence (P08253 110-660): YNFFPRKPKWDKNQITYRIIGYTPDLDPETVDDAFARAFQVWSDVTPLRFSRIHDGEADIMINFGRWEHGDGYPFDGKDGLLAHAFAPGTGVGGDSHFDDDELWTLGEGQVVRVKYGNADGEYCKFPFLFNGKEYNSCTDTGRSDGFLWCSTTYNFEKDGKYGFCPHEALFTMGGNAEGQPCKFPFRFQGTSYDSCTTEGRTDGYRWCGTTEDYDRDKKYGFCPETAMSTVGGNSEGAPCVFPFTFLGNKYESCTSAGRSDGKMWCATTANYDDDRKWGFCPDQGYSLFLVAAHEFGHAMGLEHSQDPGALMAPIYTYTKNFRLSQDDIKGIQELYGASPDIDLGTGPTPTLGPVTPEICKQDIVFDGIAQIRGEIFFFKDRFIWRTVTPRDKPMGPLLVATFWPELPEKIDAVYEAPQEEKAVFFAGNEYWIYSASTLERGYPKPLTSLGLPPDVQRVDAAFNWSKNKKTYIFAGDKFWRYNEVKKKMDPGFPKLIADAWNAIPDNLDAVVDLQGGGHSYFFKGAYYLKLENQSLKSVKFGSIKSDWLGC
# MMP-1 = target: T2, MMP-1 (Homo sapiens, UniProt P03956); assay: MMP inhibition fluorometric assay, MMP-1; details: for ΔG exp MMP-1: experimental binding energy from activity data, racemic mixture tested
# T2 sequence (P03956 100-469): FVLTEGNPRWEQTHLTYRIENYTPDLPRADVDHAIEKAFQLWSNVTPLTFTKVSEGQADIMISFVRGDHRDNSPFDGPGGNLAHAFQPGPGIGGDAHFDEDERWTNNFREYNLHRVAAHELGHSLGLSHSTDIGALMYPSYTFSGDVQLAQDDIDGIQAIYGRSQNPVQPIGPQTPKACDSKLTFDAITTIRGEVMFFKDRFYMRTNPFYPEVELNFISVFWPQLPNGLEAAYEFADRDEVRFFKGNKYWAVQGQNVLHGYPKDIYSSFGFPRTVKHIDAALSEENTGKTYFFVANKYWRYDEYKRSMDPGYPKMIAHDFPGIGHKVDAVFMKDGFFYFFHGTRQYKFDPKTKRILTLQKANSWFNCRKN
# MMP-8 = MMP-8 (Homo sapiens, UniProt P22894); assay: MMP inhibition fluorometric assay, MMP-8; details: for ΔG exp MMP-8: experimental binding energy from activity data, racemic mixture tested
# Sequence of MMP-8 (P22894 101-467): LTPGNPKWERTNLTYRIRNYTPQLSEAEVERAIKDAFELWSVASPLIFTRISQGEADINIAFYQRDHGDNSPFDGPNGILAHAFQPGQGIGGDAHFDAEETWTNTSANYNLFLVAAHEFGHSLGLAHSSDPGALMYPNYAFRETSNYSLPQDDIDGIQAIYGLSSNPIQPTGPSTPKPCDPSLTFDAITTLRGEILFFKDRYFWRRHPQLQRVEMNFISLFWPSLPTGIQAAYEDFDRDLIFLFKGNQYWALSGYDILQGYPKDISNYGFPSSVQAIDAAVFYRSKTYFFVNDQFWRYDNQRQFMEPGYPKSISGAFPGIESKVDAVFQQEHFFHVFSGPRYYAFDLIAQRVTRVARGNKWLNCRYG
# MMP-9 = MMP-9 (Homo sapiens, UniProt P14780); assay: MMP inhibition fluorometric assay, MMP-9; details: for ΔG exp MMP-9: experimental binding energy from activity data, racemic mixture tested
# Sequence of MMP-9 (P14780 107-707 limits assumed): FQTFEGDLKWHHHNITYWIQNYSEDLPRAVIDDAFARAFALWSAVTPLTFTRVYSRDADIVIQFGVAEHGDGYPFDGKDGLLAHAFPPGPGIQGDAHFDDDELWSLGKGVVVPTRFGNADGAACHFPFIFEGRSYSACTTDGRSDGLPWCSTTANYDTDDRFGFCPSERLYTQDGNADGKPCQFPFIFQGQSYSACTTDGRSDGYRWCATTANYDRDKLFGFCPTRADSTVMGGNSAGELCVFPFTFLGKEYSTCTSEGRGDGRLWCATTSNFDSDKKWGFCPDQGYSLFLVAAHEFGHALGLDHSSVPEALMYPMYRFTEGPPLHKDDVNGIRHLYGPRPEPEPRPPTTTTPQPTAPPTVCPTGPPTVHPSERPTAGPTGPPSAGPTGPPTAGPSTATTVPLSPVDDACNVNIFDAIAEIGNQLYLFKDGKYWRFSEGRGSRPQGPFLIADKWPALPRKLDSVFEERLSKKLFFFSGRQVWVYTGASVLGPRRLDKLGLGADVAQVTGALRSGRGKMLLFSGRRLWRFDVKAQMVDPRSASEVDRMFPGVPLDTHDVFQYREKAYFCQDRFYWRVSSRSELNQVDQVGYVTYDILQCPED
# MMP-2 [2] = target: T1, MMP-2; assay: biochemical
# [3] = experimental binding energy from activity data, chiral compounds tested as racemic mixture
# [4] = ratio of IC50 values versus 25a
smiles,measurement,setting,value
NC(CS)Cc1c[nH]cn1 (centres unmarked) (as salt: TFA) [Compound 1g],melting point,,196 to 198 °C
O=S(=O)(N[C@H](CO)CS)c1ccc(Oc2ccccc2)cc1 (racemic) [25d R],ΔG exp (binding energy toward MMP-2),MMP-2 [1]; [3],-5.396 kcal
same,ΔG exp MMP-1,MMP-1,-4.224 kcal
same,ΔG exp MMP-8,MMP-8,-6.870 kcal
same,ΔG exp MMP-9,MMP-9,-6.705 kcal
Cl.O=S(=O)(N[C@@H](CO)Cc1c[nH]cn1)c1ccc(Oc2ccccc2)cc1 (racemic) [25e R],ΔG exp (binding energy toward MMP-2),MMP-2 [1]; [3],-5.069 kcal
same,ΔG exp MMP-1,MMP-1,-4.524 kcal
same,ΔG exp MMP-8,MMP-8,-4.740 kcal
same,ΔG exp MMP-9,MMP-9,-5.042 kcal
N[C@H](CO)CS.O=C(O)C(F)(F)F [1d R],ΔG exp (binding energy toward MMP-2),MMP-2 [1]; [3],-4.319 kcal
N[C@@H](CO)CS.O=C(O)C(F)(F)F [1d S],ΔG exp (binding energy toward MMP-2),MMP-2 [1]; [3],-4.319 kcal
N[C@@H](CO)Cc1c[nH]cn1.O=C(O)C(F)(F)F.O=C(O)C(F)(F)F [1e R],ΔG exp (binding energy toward MMP-2),MMP-2 [1]; [3],-4.565 kcal
N[C@H](CO)Cc1c[nH]cn1.O=C(O)C(F)(F)F.O=C(O)C(F)(F)F [1e S],ΔG exp (binding energy toward MMP-2),MMP-2 [1]; [3],-4.565 kcal
N#CC[C@@H](N)CS.O=C(O)C(F)(F)F [1h R],ΔG exp (binding energy toward MMP-2),MMP-2 [1]; [3],-4.497 kcal
N#CC[C@H](N)CS.O=C(O)C(F)(F)F [1h S],ΔG exp (binding energy toward MMP-2),MMP-2 [1]; [3],-4.497 kcal
N#CC[C@@H](N)CO.O=C(O)C(F)(F)F [1i R],ΔG exp (binding energy toward MMP-2),MMP-2 [1]; [3],-4.210 kcal
N#CC[C@H](N)CO.O=C(O)C(F)(F)F [1i S],ΔG exp (binding energy toward MMP-2),MMP-2 [1]; [3],-4.210 kcal
O=C(O)C(F)(F)F.O=C(O)C(F)(F)F.[N-]=[N+]=NC[C@H](N)Cc1c[nH]cn1 [1l R],ΔG exp (binding energy toward MMP-2),MMP-2 [1]; [3],-4.524 kcal
O=C(O)C(F)(F)F.O=C(O)C(F)(F)F.[N-]=[N+]=NC[C@@H](N)Cc1c[nH]cn1 [1l S],ΔG exp (binding energy toward MMP-2),MMP-2 [1]; [3],-4.524 kcal
O=S(=O)(N[C@@H](CO)CS)c1ccc(Oc2ccccc2)cc1 [25d S],ΔG exp (binding energy toward MMP-2),MMP-2 [1]; [3],-5.396 kcal
same,ΔG exp MMP-1,MMP-1,-4.224 kcal
same,ΔG exp MMP-8,MMP-8,-6.870 kcal
same,ΔG exp MMP-9,MMP-9,-6.705 kcal
Cl.O=S(=O)(N[C@H](CO)Cc1c[nH]cn1)c1ccc(Oc2ccccc2)cc1 [25e S],ΔG exp (binding energy toward MMP-2),MMP-2 [1]; [3],-5.069 kcal
same,ΔG exp MMP-1,MMP-1,-4.524 kcal
same,ΔG exp MMP-8,MMP-8,-4.740 kcal
same,ΔG exp MMP-9,MMP-9,-5.042 kcal
"CC(=O)NO [AHA, acetohydroxamic acid, reference compound]",IC50,"MMP-2 [1]; read-out: IC50 (μM ± SD), enzymatic inhibition of MMP-2, catalytic domain of MMP-2, ZBG library, value ± SD",10000 ± 630 µM
"NC(CO)CO [Compound 1a, 2-aminopropane-1,3-diol]",ΔG exp (binding energy toward MMP-2),MMP-2 [1]; [3],-4.837 kcal
same,IC50,MMP-2 [2],280 ± 24 µM
"N#CCC(N)CC#N.O=C(O)C(F)(F)F [Compound 1b, 3-Aminopentanedinitrile Trifluoroacetate]",ΔG exp (binding energy toward MMP-2),MMP-2 [1],-4.428 kcal
same,IC50,MMP-2 [2],560 ± 52 µM
"NC(CO)CS (centres unmarked) [Compound 1d, 2-Amino-3-mercaptopropan-1-ol Trifluoroacetate]",IC50,MMP-2 [2],674 ± 88 µM
"NC(CO)Cc1c[nH]cn1 (centres unmarked) [Compound 1e, 2-Amino-3-(1H-imidazol-4-yl)propan-1-ol Ditrifluoroacetate]",IC50,MMP-2 [2],450 ± 23 µM
"NC(CS)CS.O=C(O)C(F)(F)F [Compound 1f, 2-Aminopropane-1,3-dithiol Trifluoroacetate]",ΔG exp (binding energy toward MMP-2),MMP-2 [1],-4.333 kcal
same,IC50,MMP-2 [2],666 ± 90 µM
"N#CCC(N)CS (centres unmarked) [Compound 1h, 3-Amino-4-mercaptobutanenitrile Trifluoroacetate]",IC50,MMP-2 [2],500 ± 49 µM
"N#CCC(N)CO.O=C(O)C(F)(F)F (centres unmarked) [Compound 1i, 3-Amino-4-hydroxybutanenitrile Trifluoroacetate]",melting point,,131 to 133 °C
same,IC50,MMP-2 [2],807 ± 98 µM
"[N-]=[N+]=NCC(N)CS (centres unmarked) [Compound 1j, 2-Amino-3-azidopropane-1-thiol Trifluoroacetate]",IC50,MMP-2 [2],520 ± 57 µM
"[N-]=[N+]=NCC(N)Cc1c[nH]cn1 (centres unmarked) [Compound 1l, 1-Azido-3-(1H-imidazol-4-yl)propan-2-amine Ditrifluoroacetate]",IC50,MMP-2 [2],480 ± 25 µM
"O=S(=O)(NC(CO)CO)c1ccc(Oc2ccccc2)cc1 [Compound 25a, N-(1,3-Dihydroxypropan-2-yl)-4-phenoxybenzenesulfonamide]",ΔG exp (binding energy toward MMP-2),MMP-2 [1]; [3],-5.655 kcal
same,IC50,MMP-1,1030 ± 160 µM
same,ΔG exp MMP-1,MMP-1,-4.074 kcal
same,IC50,MMP-8,98 ± 8 µM
same,ΔG exp MMP-8,MMP-8,-5.460 kcal
same,IC50,MMP-9,160 ± 15 µM
same,ΔG exp MMP-9,MMP-9,-5.178 kcal
same,IC50,MMP-2 [2],71 ± 1.9 µM
"O=S(=O)(NC(CO)CS)c1ccc(Oc2ccccc2)cc1 (centres unmarked) [Compound 25d, N-(1-Hydroxy-3-mercaptopropan-2-yl)-4-phenoxybenzenesulfonamide]",IC50,MMP-1,819 ± 116 µM
same,IC50,MMP-8,9.1 ± 2.3 µM
same,fold more potent than 25a on MMP-8,MMP-8; [4],10 fold
same,IC50,MMP-9,12 ± 4 µM
same,fold more potent than 25a on MMP-9,MMP-9; [4],13 fold
same,IC50,MMP-2 [2],110 ± 10 µM
"O=S(=O)(NC(CO)Cc1c[nH]cn1)c1ccc(Oc2ccccc2)cc1 (centres unmarked) [Compound 25e, N-(1-Hydroxy-3-(1H-imidazol-4-yl)propan-2-yl)-4-phenoxybenzenesulfonamide Hydrochloride]",IC50,MMP-1,480 ± 30 µM
same,IC50,MMP-8,330 ± 21 µM
same,IC50,MMP-9,200 ± 15 µM
same,IC50,MMP-2 [2],190 ± 8.7 µM
